# Source: article PMC8752738, “A propolis-derived small molecule ameliorates metabolic syndrome in obese mice by targeting the CREB/CRTC2 transcriptional complex” (Nature Communications, 2022)
# “And” between values parts separate entries of the source, which are not always exact repeats. Equal values may be shown once.
# Columns and labels:
# tissue protein levels = experiment: Immunoblotting of tissue proteins in treated mice; assay type: in vivo, mouse; details: for Relative LXRa/ACTIN, Mean Diff. (VEH vs. treated) / Relative LXRa/ACTIN, Mean 2 (group mean) / Relative LXRa/ACTIN: Figure 7h; for Relative LXRa/ACTIN, Mean 2 (group mean): N2 = 4; for Relative LXRa/ACTIN: single replicates
# Description: (§1) Immunoblotting and immunoprecipitation assays were performed as previously described, with antibodies recognizing CREB, Ser133-P-CREB, AMPK, P-AMPK, AKT, P-AKT (Cell Signaling), PGC-1α (Merck), CRTC2 (Calbiochem), PCK1 (Santa Cruz), SREBP1 (Santa Cruz), SREBP2 (BD), HA (Convance), LXRα (Santa Cruz), FLAG (Sigma), GST (Covance), HIS (Abmart), GAPDH (AOGMA), α-TUBULIN (Abmart), β-ACTIN (Abmart), and other antibodies (Supplementary Table 3). For immunostaining assays, primary cultured hepatocytes seeded on coverslips were fixed with 4% paraformaldehyde for 20 min, permeabilized with 0.3% Triton X-100 in PBS, and then blocked by 5% normal goat serum and 0.3% Triton X-100 in PBS, followed by incubation with anti-CREB (1:1000), anti-P-CREB (1:1000), or anti-HA (1:3000) antibodies for 1 h at 4 °C. Slides were then washed, and after washing, slides were incubated with fluorochrome-conjugated secondary antibodies (Invitrogen). Slides were then washed and mounted with Vectashield mounting media containing 4, 6-diamidino-2-phenylindole (DAPI).
# AMPK = experiment: Phospho-AMPK immunoblot in primary hepatocytes; assay type: cell-based, mouse; details: for relative p-AMPK protein, mean: N=3 (0 μM = 1); for relative p-AMPK protein: Supp. fig.3e, individual replicates
# Description: as §1
# 1 Supplementary Figure 3. APC inhibits gluconeogenesis independent of CREB-phosphorylation,
# 2 cell toxin or AMPK activation. […]
# 20 e) Phosphate-AMPK level in primary hepatocytes incubated with APC or metformin (MET) at
# 21 indicated concentrations (0–200 μM) for 30 minutes (top). Relative P-AMPK normalized by AMPK is […]
# [1] = Cholesterol, TG, NEFA and glycerol in serum and liver; assay type: in vivo, mouse; set-up: liver NEFA, Mean 2 (group mean) / Plasma VLDL cholesterol in db/db mice (VLDL-C) / Plasma VLDL cholesterol in db/db mice, group mean / TC in liver_CT2KO (total cholesterol in the liver of CRTC2-KO) / TC in liver_WT (total cholesterol in the liver) / TC in liver_WT, mean / TC in liver_WT, Mean Diff. VEH vs. drug / TC in liver_CRTC2KO, mean / TC in liver_CRTC2KO, Mean Diff. VEH vs. drug: unit not given here; details: for Plasma total cholesterol, Mean 1 (drug group): N 6
# Description: Serum total cholesterol (TC), LDL cholesterol (LDL-C), and HDL cholesterol (HDL-C) levels were detected using commercial kits (Beihua, China), and serum VLDL protein was determined by ELISA (Jiancheng, China).
# The plasma TG and NEFA levels were determined using corresponding kits from Beihua (China) and WAKO (Japan), respectively. The TG levels of liver and WAT were tested by TG kit (Applygene, China). The NEFA in the liver and WAT were extracted by chloroform–methanol and then subjected to NEFA assay (WAKO).
# tissue mRNA levels = experiment: Quantitative PCR of tissue gene expression in treated mice; assay type: in vivo, mouse; details: for Mean Diff. (Veh. vs. treated; head of the quantity not shown, section just before Figure 7h): Met 200mg/kg or APC-20; for Lxra mRNA level: Figure 7g right, Met 200mg/kg, single animals
# Description: Total RNA from cells and tissues was extracted by Trizol (Invitrogen) and reverse-transcribed into cDNA using the prime script RT reagent kit with gDNA eraser (Takara). The mRNA levels were determined using the SYBR-green PCR kit (Takara) with ABIPRISM 7900HT Sequence detector (ABI) according to the manufacturer’s protocol. The quantitative qPCR primers used in this work are listed in Supplementary Table 1. Ribosomal L32 mRNA levels were used as an internal control.
# CREB-CRTC2 interaction = biological target: T1, CREB-CRTC2 interaction (Homo sapiens, UniProt P16220); experiment: CREB–CRTC2 mammalian two-hybrid assay (GAL4-Luc reporter); assay type: cell-based; details: for Relative Gal4-LUC activity, single replicates: Figure 1f, CREB-CRTC2 two-hybrid assay, DMSO control about 100; for reporter activity of CREB–CRTC2 two-hybrid assay: HEK293T, isolated compound 25 μM
# T1 construct: expressed in transfected cells; host or cells: HEK293T
# T1 sequence (P16220 whole entry, the tested form may be a part): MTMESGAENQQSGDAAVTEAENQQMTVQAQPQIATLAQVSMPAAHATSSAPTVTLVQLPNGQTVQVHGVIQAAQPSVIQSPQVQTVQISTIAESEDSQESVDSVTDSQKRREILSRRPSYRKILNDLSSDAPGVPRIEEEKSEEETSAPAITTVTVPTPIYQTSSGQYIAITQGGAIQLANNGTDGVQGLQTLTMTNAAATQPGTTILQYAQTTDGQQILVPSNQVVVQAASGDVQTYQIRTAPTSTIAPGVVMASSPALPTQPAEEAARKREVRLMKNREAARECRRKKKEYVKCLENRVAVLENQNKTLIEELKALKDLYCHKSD
# [2] = liver, CRTC2KO mice, drug minus VEH
# [3] = liver, CRTC2KO mice, group mean, N=4
# [4] = liver, WT mice, group mean, N=4
# [5] = 200 μM (first of two lines printed 200)
# [6] = 200 μM (second of two lines printed 200)
structure (smiles),measurement,setting,value
CN(C)C(=N)NC(=N)N [MET],"Relative LXRa/ACTIN, Mean Diff. (VEH vs. treated)",tissue protein levels; CRTC2KO,0.07206
same,"Relative LXRa/ACTIN, Mean 2 (group mean)",tissue protein levels; CRTC2KO,0.7321
same,Relative LXRa/ACTIN,tissue protein levels; CT2KO,0.7043 and 0.6782 and 0.684 and 0.8619
same,"Relative LXRa/ACTIN, Mean Diff. (VEH vs. treated)",tissue protein levels; WT,0.1998
same,"Relative LXRa/ACTIN, Mean 2 (group mean)",tissue protein levels; WT,0.6958
same,Relative LXRa/ACTIN,tissue protein levels; WT,0.7209 and 0.7206 and 0.6711 and 0.6705
same,"SREBP1/ACT IN CT2KO, Mean Diff. vs. VEH",tissue protein levels; [2],-0.1882
same,"SREBP2/ACT IN CT2KO, Mean Diff. vs. VEH",tissue protein levels; [2],-0.07501
same,"SREBP1/ACT IN CT2KO, mean",tissue protein levels; [3],0.4991
same,"SREBP2/ACT IN CT2KO, mean",tissue protein levels; [3],0.6794
same,SREBP1/ACT IN CT2KO (related SREBP1 protein levels in CRTC2KO liver),"tissue protein levels; liver, CRTC2KO mice, individual replicates, Supp.fig.5a left",0.5276 and 0.4764 and 0.5154 and 0.4771
same,SREBP2/ACT IN CT2KO (related SREBP2 protein levels in CRTC2KO liver),"tissue protein levels; liver, CRTC2KO mice, individual replicates, Supp.fig.5a right",0.7097 and 0.717 and 0.6322 and 0.6586
same,"SREBP1/ACT IN WT, Mean Diff. vs. VEH","tissue protein levels; liver, WT mice, drug minus VEH",-0.1949
same,"SREBP2/ACT IN WT, Mean Diff. vs. VEH","tissue protein levels; liver, WT mice, drug minus VEH",-0.2245
same,"SREBP1/ACT IN WT, mean",tissue protein levels; [4],0.7683
same,"SREBP2/ACT IN WT, mean",tissue protein levels; [4],0.8001
same,SREBP1/ACT IN WT (related SREBP1 protein levels in liver),"tissue protein levels; liver, WT mice, individual replicates, Supp.fig.5a left",0.8628 and 0.72 and 0.7576 and 0.7329
same,SREBP2/ACT IN WT (related SREBP2 protein levels in liver),"tissue protein levels; liver, WT mice, individual replicates, Supp.fig.5a right",0.85 and 0.793 and 0.7497 and 0.8079
same,"relative p-AMPK protein, mean",AMPK; 5 μM,1.096
same,"relative p-AMPK protein, mean",AMPK; 10 μM,1.224
same,"relative p-AMPK protein, mean",AMPK; 100 μM,1.394
same,"relative p-AMPK protein, mean",AMPK; [5],1.978
same,"relative p-AMPK protein, mean",AMPK; [6],2.005
same,relative p-AMPK protein,AMPK; 5 μM,1.169 (2×) and 0.9483
same,relative p-AMPK protein,AMPK; 10 μM,1.256 and 1.249 and 1.166
same,relative p-AMPK protein,AMPK; 100 μM,1.432 and 1.326 and 1.423
same,relative p-AMPK protein,AMPK; [5],2.049 and 1.941 and 1.943
same,relative p-AMPK protein,AMPK; [6],1.966 and 1.951 and 2.098
same,"relative p-AMPK protein, column mean","AMPK; mean over all concentrations, 0 μM included",1.449
same,"Plasma total cholesterol, Mean Diff. vs. VEH","[1]; Figure 6h, CRTC2KO mice",28.04 mg/dL
same,"Plasma total cholesterol, Mean 1 (drug group)","[1]; Figure 6h, CRTC2KO mice, group mean",246.8 mg/dL
same,TC in plasma_CRTC2KO (plasma total cholesterol),"[1]; Figure 6h, CRTC2KO mice, individual mice",232.014 mg/dL and 251.349 mg/dL and 216.160 mg/dL and 260.242 mg/dL and 252.895 mg/dL and 268.363 mg/dL
same,"Plasma total cholesterol, Mean Diff. vs. VEH","[1]; Figure 6h, WT mice",-63.12 mg/dL
same,"Plasma total cholesterol, Mean 1 (drug group)","[1]; Figure 6h, WT mice, group mean",215.4 mg/dL
same,TC in plasma_WT (plasma total cholesterol),"[1]; Figure 6h, WT mice, individual mice",184.451 mg/dL and 247.868 mg/dL and 232.401 mg/dL and 156.610 mg/dL and 233.948 mg/dL and 237.041 mg/dL
same,"TC in liver_CRTC2KO, Mean Diff. VEH vs. drug","[1]; liver, CRTC2-KO mice, VEH minus drug",-4.203
same,"TG in liver_CT2KO, Mean Diff. vs. VEH","[1]; liver, CRTC2-KO mice, drug minus VEH",5.139 mg/g protein
same,"TC in liver_CRTC2KO, mean","[1]; liver, CRTC2-KO mice, group mean (Mean 2), N=6",55.56
same,"TG in liver_CT2KO, mean","[1]; liver, CRTC2-KO mice, group mean, N=6",20.79 mg/g protein
same,TG in liver_CT2KO,"[1]; liver, CRTC2-KO mice, individual animals, Supp.fig.5c",21.7349 mg/g protein and 16.8626 mg/g protein and 22.9286 mg/g protein and 13.5919 mg/g protein and 26.3275 mg/g protein and 23.2939 mg/g protein
same,"TC in liver_WT, Mean Diff. VEH vs. drug","[1]; liver, WT mice, VEH minus drug",4.549
same,"TG in liver_WT, Mean Diff. vs. VEH","[1]; liver, WT mice, drug minus VEH",-8.336 mg/g protein
same,"TC in liver_WT, mean","[1]; liver, WT mice, group mean (Mean 2), N=6",55.81
same,"TG in liver_WT, mean","[1]; liver, WT mice, group mean, N=6",11.62 mg/g protein
same,TG in liver_WT,"[1]; liver, WT mice, individual animals, Supp.fig.5c",22.699 mg/g protein and 6.6923 mg/g protein and 14.0154 mg/g protein and 7.7587 mg/g protein and 8.152 mg/g protein and 10.4144 mg/g protein
CN(C)C(=N)NC(=N)N [Met],"Mean Diff. (Veh. vs. treated; head of the quantity not shown, section just before Figure 7h)",tissue mRNA levels; CRTC2KO mice,-0.1815
same,Lxra mRNA level,tissue mRNA levels; Crtc2KO mice,0.8758 and 0.8882 and 0.7033 and 0.8771 and 1.013
same,Lxra mRNA level,tissue mRNA levels; WT mice,1.062 and 1.197 and 0.4513 and 1.258 and 0.814
same,"Mean Diff. (Veh. vs. treated; head of the quantity not shown, section just before Figure 7h)",tissue mRNA levels; WT mice,0.07313
same,TC in liver_CT2KO (total cholesterol in the liver of CRTC2-KO),"[1]; liver, CRTC2-KO mice, individual animals, Supp.fig.5d",69.3199 and 58.5752 and 53.7207 and 41.7006 and 49.9498 and 60.0658
same,TC in liver_WT (total cholesterol in the liver),"[1]; liver, WT mice, individual animals, Supp.fig.5d",51.5785 and 54.6034 and 57.0386 and 53.1363 and 64.5936 and 53.9126
"O=C(O)/C=C/c1ccc(O)cc1 [P1, (E)-p-coumaric acid]","Relative Gal4-LUC activity, single replicates",CREB-CRTC2 interaction,70.496 and 71.1658 and 69.3726
same,reporter activity of CREB–CRTC2 two-hybrid assay,CREB-CRTC2 interaction,significantly inhibited
"CC(C)=CCc1cc(/C=C/C(=O)O)ccc1O [P2, drupanin]","Relative Gal4-LUC activity, single replicates",CREB-CRTC2 interaction,61.0304 and 51.9945 and 58.5603
same,reporter activity of CREB–CRTC2 two-hybrid assay,CREB-CRTC2 interaction,significantly inhibited
"O=C(/C=C/c1ccc(O)cc1)OCc1ccccc1 [P5, (E)-p-coumaric acid benzyl ester]","Relative Gal4-LUC activity, single replicates",CREB-CRTC2 interaction,49.3178 and 78.5049 and 35.7022
same,reporter activity of CREB–CRTC2 two-hybrid assay,CREB-CRTC2 interaction,significantly inhibited
"CC(C)=CCc1cc(/C=C/C(=O)O)cc(C/C=C(\C)CO)c1O [P7, capillartemisin A]","Relative Gal4-LUC activity, single replicates",CREB-CRTC2 interaction,126.493 and 128.204 and 133.801
"O=C(O)/C=C/c1ccc(O)c(O)c1 [P9, (E)-caffeic acid]","Relative Gal4-LUC activity, single replicates",CREB-CRTC2 interaction,57.5791 and 77.7251 and 73.1602
"CCOC(=O)/C=C/c1ccc(O)c(O)c1 [P10, (E)-caffeic acid ethyl ester]","Relative Gal4-LUC activity, single replicates",CREB-CRTC2 interaction,123.291 and 121.37 and 118.215
"CC1(C)C=Cc2cc(C=CC(=O)O)ccc2O1 [P11, 2,2-dimethylchromene-6-propenoic acid]","Relative Gal4-LUC activity, single replicates",CREB-CRTC2 interaction,49.0084 and 29.9945 and 36.8575
